# Where two headings read alike, the source gives them in different places.
# Experiments:
# [1] = test system: C. neoformans var. gattii; test: microbe, parasite or virus in culture
# Experimental: (§1) The MICs of the yeast strains for PMB, PME, and octapeptin C4 and its derivatives were determined in accordance with CLSI M27-A2 guidelines using YNB (Becton Dickinson, USA) medium supplemented with 10 mM ammonium sulfate and 2% glucose, a final inoculum concentration of 1.5 × 10^3 to 2.0 × 10^3 cells/ml, and incubation at 35°C for 72 h ([39]). […] The MICs for PMB, PME, and octapeptin C4 for A. fumigatus were determined in accordance with the CLSI M38-A2 guidelines ([40]) using synthetic RPMI 1640 medium (with glutamine, without bicarbonate and with phenol red; Life Technologies, USA). The final inoculum concentration was 0.4 × 10^4 to 5 × 10^4 cells/ml, with incubation at 35°C for 48 h. […] All assays were completed in triplicate. Fluconazole was used as a positive control where the MIC was determined at both 50% growth (in accordance with CLSI M27-A2 guidelines) and when there was a “no visible growth” reading.
# [2] = test system: C. neoformans var. neoformans; test: microbe, parasite or virus in culture; settings: Cryptococcus neoformans
# Experimental: as §1
compound,measurement,setting,value
"OC(Cn1cncn1)(Cn1cncn1)c1ccc(F)cc1F [Fluconazole, fluconazole]",MIC,"[1]; Cryptococcus neoformans, ATCC24066, read-out: MIC-2, strain ATCC 24066 (NIH 18), 50% fungal growth",1.56 µg/mL
same,MIC,"[1]; Cryptococcus neoformans, ATCC24066, strain ATCC 24066 (NIH 18), no visible growth",3.13 µg/mL
same,MIC,"[1]; Cryptococcus neoformans, ATCC32269, read-out: MIC-2, strain ATCC 32269, 50% fungal growth",0.78 µg/mL
same,MIC,"[1]; Cryptococcus neoformans, ATCC32269, strain ATCC 32269, no visible growth",1.56 µg/mL
same,MIC,"[1]; Cryptococcus neoformans, ATCC32608, read-out: MIC-2, strain ATCC 32608 (NIH 191), 50% fungal growth",0.39 µg/mL
same,MIC,"[1]; Cryptococcus neoformans, ATCC32608, strain ATCC 32608 (NIH 191), no visible growth",0.78 µg/mL
same,MIC,"[1]; Cryptococcus neoformans, ATCC32609, read-out: MIC-2, strain ATCC 32609 (NIH444), 50% fungal growth",3.13 µg/mL
same,MIC,"[1]; Cryptococcus neoformans, ATCC32609, strain ATCC 32609 (NIH444), no visible growth",6.25 µg/mL
same,MIC,"[1]; Cryptococcus neoformans, ATCC34878, read-out: MIC-2, strain ATCC 34878, 50% fungal growth",3.13 µg/mL
same,MIC,"[1]; Cryptococcus neoformans, ATCC34878, strain ATCC 34878, no visible growth",6.25 µg/mL
same,MIC,"[1]; Cryptococcus neoformans, ATCC34882, read-out: MIC-2, strain ATCC 34882, 50% fungal growth",1.56 µg/mL
same,MIC,"[1]; Cryptococcus neoformans, ATCC34882, strain ATCC 34882, no visible growth",6.25 µg/mL
same,MIC,"[1]; Cryptococcus neoformans, read-out: MIC-2, strain 93/980 (CSF France), 50% fungal growth",1.56 µg/mL
same,MIC,"[1]; Cryptococcus neoformans, read-out: MIC-2, strain B5742 (VGIV CSF India), 50% fungal growth",3.13 µg/mL
same,MIC,"[1]; Cryptococcus neoformans, read-out: MIC-2, strain R266 (Vancouver Island), 50% fungal growth",6.25 µg/mL
same,MIC,"[1]; Cryptococcus neoformans, read-out: MIC-2, strain R267 (Vancouver Island), 50% fungal growth",25 µg/mL
same,MIC,"[1]; Cryptococcus neoformans, read-out: MIC-2, strain R268 (Vancouver Island), 50% fungal growth",0.78 µg/mL
same,MIC,"[1]; Cryptococcus neoformans, read-out: MIC-2, strain R269 (Vancouver Island), 50% fungal growth",3.13 µg/mL
same,MIC,"[1]; Cryptococcus neoformans, read-out: MIC-2, strain R270 (Vancouver Island), 50% fungal growth",3.13 µg/mL
same,MIC,"[1]; Cryptococcus neoformans, strain R266 (Vancouver Island), no visible growth",12.5 µg/mL
same,MIC,"[1]; Cryptococcus neoformans, strain R267 (Vancouver Island), no visible growth",< 25 µg/mL
same,MIC,"[1]; Cryptococcus neoformans, strain R268 (Vancouver Island), no visible growth",1.56 µg/mL
same,MIC,"[1]; Cryptococcus neoformans, strain R269 (Vancouver Island), no visible growth",12.5 µg/mL
same,MIC,"[1]; Cryptococcus neoformans, strain R270 (Vancouver Island), no visible growth",6.25 µg/mL
same,MIC,"[1]; read-out: MIC-2, strain 96/1120-1 (Brain HIV2 France), 50% fungal growth",3.13 µg/mL
same,MIC,"[1]; read-out: MIC-2, strain 96/1120-2 (CSF HIV2 France), 50% fungal growth",6.25 µg/mL
same,MIC,"[1]; read-out: MIC-2, strain B5748 (VGIV HIV India), 50% fungal growth",3.13 µg/mL
same,MIC,"[1]; strain 96/1120-1 (Brain HIV2 France), no visible growth",25 µg/mL
same,MIC,"[1]; strain 96/1120-2 (CSF HIV2 France), no visible growth",25 µg/mL
same,MIC,"[1]; strain B5748 (VGIV HIV India), no visible growth",12.5 µg/mL
same,MIC,"[2]; read-out: MIC-2, strain WM 01.127 (USA), 50% fungal growth",6.25 µg/mL
same,MIC,"[2]; read-out: MIC-2, strain WM 02.141 (Russia), 50% fungal growth",3.13 µg/mL
same,MIC,"[2]; read-out: MIC-2, strain WM 02.142 (Russia), 50% fungal growth",6.25 µg/mL
same,MIC,"[2]; read-out: MIC-2, strain WM 02.143 (Russia), 50% fungal growth",6.25 µg/mL
same,MIC,"[2]; read-out: MIC-2, strain WM 02.37 (Canada), 50% fungal growth",6.25 µg/mL
same,MIC,"[2]; read-out: MIC-2, strain WM 02.52 (Canada), 50% fungal growth",3.13 µg/mL
same,MIC,"[2]; read-out: MIC-2, strain WM 04.168 (Chile), 50% fungal growth",6.25 µg/mL
same,MIC,"[2]; read-out: MIC-2, strain WM 04.171 (Thailand, environmental), 50% fungal growth",6.25 µg/mL
same,MIC,"[2]; read-out: MIC-2, strain WM 05.467 (Brazil, environmental), 50% fungal growth",6.25 µg/mL
same,MIC,"[2]; read-out: MIC-2, strain WM 05.515 (Peru), 50% fungal growth",1.56 µg/mL
same,MIC,"[2]; read-out: MIC-2, strain WM 09.109 (Italy, environmental), 50% fungal growth",3.13 µg/mL
same,MIC,"[2]; read-out: MIC-2, strain WM 09.112 (USA), 50% fungal growth",3.13 µg/mL
same,MIC,"[2]; read-out: MIC-2, strain WM 10.119 (Australia), 50% fungal growth",3.13 µg/mL
same,MIC,"[2]; read-out: MIC-2, strain WM 629 (Australia), 50% fungal growth",3.13 µg/mL
same,MIC,"[2]; read-out: MIC-2, strain WM 1706 (Argentina), 50% fungal growth",6.25 µg/mL
same,MIC,"[2]; read-out: MIC-2, strain WM 1740 (Chile), 50% fungal growth",3.13 µg/mL
same,MIC,"[2]; read-out: MIC-2, strain WM 2207 (USA, environmental), 50% fungal growth",12.5 µg/mL
same,MIC,"[2]; read-out: MIC-2, strain WM 2242 (USA), 50% fungal growth",1.56 µg/mL
same,MIC,"[2]; read-out: MIC-2, strain WM 2530 (USA), 50% fungal growth",3.13 µg/mL
same,MIC,"[2]; strain WM 01.127 (USA), no visible growth",12.5 µg/mL
same,MIC,"[2]; strain WM 02.141 (Russia), no visible growth",6.25 µg/mL
same,MIC,"[2]; strain WM 02.142 (Russia), no visible growth",12.5 µg/mL
same,MIC,"[2]; strain WM 02.143 (Russia), no visible growth",12.5 µg/mL
same,MIC,"[2]; strain WM 02.37 (Canada), no visible growth",25 µg/mL
same,MIC,"[2]; strain WM 02.52 (Canada), no visible growth",6.25 µg/mL
same,MIC,"[2]; strain WM 04.168 (Chile), no visible growth",12.5 µg/mL
same,MIC,"[2]; strain WM 04.171 (Thailand, environmental), no visible growth",6.25 µg/mL

# — PMC5786788, “Antimicrobial Octapeptin C4 Analogues Active against Cryptococcus Species” (Antimicrobial Agents and Chemotherapy, 2018)
